Experiments:
[1] = tested on: Wistar rats fed with high-fat diets; assay: Wistar rats fed with high-fat diets: body weight and liver triglyceride; type: in vivo, rat
Text: Pharmacological actions of L-Asp were identified using Wistar rats fed with high-fat diets.
These triglyceride contents were converted into total triglyceride contents in the entire liver.

[2] = tested on: malic enzyme (ME) gene; assay: Liver gene expression profiling in GK rats (Gene Chip Rat Genome U34A Array): ME; type: in vivo; conditions: 8 weeks, CON group = 1.00
Experimental: (§1) Gene expression profiling was conducted using samples containing equivalent amounts of genes in the liver of individuals in the individual groups. The gene expression profiling was carried out with the Gene Chip Rat Genome U34A Array (Affymetrix Inc.). […] This is because the two genes relate to steatogenesis.
(§2) The mRNA levels are expressed while defining the level in the CON group as 1.00.

[3] = tested on: stearoyl-Coenzyme A desaturase 1 (SCD1) gene; assay: Liver gene expression profiling in GK rats (Gene Chip Rat Genome U34A Array): SCD1; type: in vivo; conditions: 8 weeks, CON group = 1.00
Experimental: as §1, §2

## N[C@@H](CC(=O)O)C(=O)O [L-Asp, L-aspartic acid]
[1]; before administration (baseline), HFD plus about 6% L-Asp, n = 6
  Body weight: 328 ± 9 g
[1]; four weeks, HFD plus Asp group, HFD group 57.6
  triglyceride content: 43.4 mg per 1 g of the liver
[1]; four weeks, HFD plus Asp group, HFD group 1047.5
  total triglyceride content in the liver: 743.4 mg
[1]; week 4, HFD plus about 6% L-Asp
  Triglyceride content in liver: 43 ± 10 mg/g
[1]; week 4, HFD plus about 6% L-Asp, n = 6
  Body weight: tended to have a decreased body weight
[1]; week 4, HFD plus about 6% L-Asp, n = 6, listed as Asp
  Body weight: 474 ± 20 g
[2]; 3% L-Asp diet (3AS)
  ME mRNA level in liver: 0.55
[2]; 6% L-Asp diet (6AS)
  ME mRNA level in liver: 0.62
[3]; 3% L-Asp diet (3AS)
  SCD1 mRNA level in liver: 0.78
[3]; 6% L-Asp diet (6AS)
  SCD1 mRNA level in liver: 0.71
